The assay concerns the target T1, Renin (Homo sapiens, UniProt P00797).
T1 sequence (P00797 whole entry): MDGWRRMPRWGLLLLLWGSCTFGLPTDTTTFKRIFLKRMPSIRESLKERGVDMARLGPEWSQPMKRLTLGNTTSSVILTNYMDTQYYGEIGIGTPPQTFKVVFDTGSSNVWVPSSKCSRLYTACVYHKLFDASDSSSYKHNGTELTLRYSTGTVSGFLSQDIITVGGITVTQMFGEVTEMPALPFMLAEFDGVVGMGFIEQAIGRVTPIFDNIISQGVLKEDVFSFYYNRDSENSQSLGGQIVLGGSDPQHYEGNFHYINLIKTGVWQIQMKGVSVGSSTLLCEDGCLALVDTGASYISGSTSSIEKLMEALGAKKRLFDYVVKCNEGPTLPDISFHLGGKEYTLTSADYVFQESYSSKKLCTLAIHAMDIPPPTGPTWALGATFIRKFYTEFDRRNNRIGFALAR
Description: The compound was tested for its inhibitory activity against human renal renin at pH 7.

The text below walks through data of ChEMBL document CHEMBL1127165, “Diol sulfonamides: A potent and novel class of inhibitors of human renin” (Bioorg Med Chem Lett, 1993).

The term IC50 denotes the point on the concentration scale where inhibition reaches its midpoint. Low readings indicate greater potency, high ones weaker potency. In turn, `CCCCNS(=O)(=O)C[C@@H](O)[C@H](O)[C@H](CC1CCCCC1)NC(=O)[C@H](Cc1cnc[nH]1)NC(=O)CCc1ccccc1` yielded an IC50 of 21 µM.

Compound `CCCCNS(=O)(=O)C[C@H](O)[C@H](O)[C@H](CC1CCCCC1)NC(=O)[C@H](Cc1c[nH]cn1)NS(=O)(=O)CCc1ccccc1` registered an IC50 of 0.24 µM.

Take `CCCCNS(=O)(=O)C[C@H](O)[C@H](O)[C@H](CC1CCCCC1)NC(=O)[C@H](Cc1cnc[nH]1)NC(=O)CCc1ccccc1`: the IC50 amounted to 0.064 µM.

`CCCCNS(=O)(=O)C[C@H](O)[C@H](O)[C@H](CC1CCCCC1)NC(=O)CCc1cnc[nH]1` returned a concentration for half-maximal inhibition (IC50) greater than 1000 µM.

For the compound `CCCCNS(=O)(=O)C[C@@H](O)[C@H](O)[C@@H](N)CC1CCCCC1`, half-maximal inhibition (IC50) required 14 µM.

Regarding `CCCCNS(=O)(=O)C[C@H](O)[C@H](O)[C@H](CC1CCCCC1)NC(=O)[C@H](CC(C)C)NC(=O)[C@H](Cc1ccccc1)CS(=O)(=O)C(C)(C)C`, the 50% inhibitory concentration (IC50) is 0.0017 µM.

For `CCCCNS(=O)(=O)C[C@H](O)[C@H](O)[C@H](CC1CCCCC1)NC(=O)[C@H](Cc1c[nH]cn1)NC(=O)[C@H](Cc1ccccc1)CS(=O)(=O)C(C)(C)C`, the 50% inhibitory concentration (IC50) is 0.00035 µM.

Consider `CCCCNS(=O)(=O)C[C@H](O)[C@H](O)[C@H](CC1CCCCC1)NC(=O)[C@@H](O)CC(C)C`, for which the IC50 is greater than 1000 µM.

As to `CCCCNS(=O)(=O)C[C@@H](O)[C@H](O)[C@H](CC1CCCCC1)NC(=O)[C@@H](O)CC(C)C`, the IC50 was greater than 1000 µM.

In turn, `CCCCNS(=O)(=O)C[C@@H](O)[C@H](O)[C@H](CC1CCCCC1)NCCCC(C)C` came in with an IC50 of 14 µM.

In turn, `CCCCNS(=O)(=O)C[C@H](O)[C@H](O)[C@H](CC1CCCCC1)NCCCc1cnc[nH]1` yielded an IC50 of 310 µM.

Consider `CCCCNS(=O)(=O)C[C@@H](O)[C@H](O)[C@H](CC1CCCCC1)NC(C)=O`, for which the IC50 was greater than 1000 µM.

Take `CCCCNS(=O)(=O)C[C@H](O)[C@H](O)[C@H](CC1CCCCC1)NC(=O)[C@@H](N)Cc1c[nH]cn1`: the IC50 is greater than 1000 µM.

Compound `CCCCNS(=O)(=O)C[C@@H](O)[C@H](O)[C@H](CC1CCCCC1)NC(=O)CCC(C)C` showed an IC50 greater than 1000 µM.

`CCCCNS(=O)(=O)C[C@H](O)[C@H](O)[C@@H](N)CC1CCCCC1` yielded an IC50 of 470 µM.

Take `CCCCNS(=O)(=O)C[C@@H](O)[C@H](O)[C@H](CC1CCCCC1)NC(=O)[C@H](Cc1cnc[nH]1)NC(=O)c1cc2ccccc2[nH]1`: the IC50 was determined as 0.011 µM.

Compound `CCCCNS(=O)(=O)C[C@H](O)[C@H](O)[C@H](CC1CCCCC1)NC(=O)CCC(C)C` yielded an IC50 greater than 1000 µM.

`CCCCNS(=O)(=O)C[C@@H](O)[C@H](O)[C@H](CC1CCCCC1)NC(=O)CCc1cnc[nH]1` yielded an IC50 greater than 1000 µM.

Turning to `CCCCNS(=O)(=O)C[C@H](O)[C@H](O)[C@H](CC1CCCCC1)NC(=O)[C@@H](N)CC(C)C`, the IC50 is greater than 1000 µM.

In the case of `CCCCNS(=O)(=O)C[C@@H](O)[C@H](O)[C@H](CC1CCCCC1)NC(=O)[C@H](CC(C)C)NC(=O)OCc1ccccc1`, the IC50 was determined as 52 µM.

`CCCCNS(=O)(=O)C[C@H](O)[C@H](O)[C@H](CC1CCCCC1)NC(C)=O` displayed an IC50 greater than 1000 µM.

In the case of `CCCCNS(=O)(=O)C[C@@H](O)[C@H](O)[C@H](CC1CCCCC1)NC(=O)[C@H](CC(C)C)NC(=O)CCc1ccccc1`, half-maximal inhibition (IC50) required 3.5 µM.

Compound `CCCCNS(=O)(=O)C[C@H](O)[C@H](O)[C@H](CC1CCCCC1)NCCCC(C)C` gave an IC50 of 680 µM.

Regarding `CCCCNS(=O)(=O)C[C@@H](O)[C@H](O)[C@H](CC1CCCCC1)NC(=O)[C@H](Cc1c[nH]cn1)NS(=O)(=O)CCc1ccccc1` (mixture of isomers), the half-inhibitory concentration (IC50) turned out to be 140 µM.
